Measured values taken from US9688699B2, “3-(pyrimidine-2-yl)imidazo[1,2-a]pyridines” (Bayer Pharma Aktiengesellschaft, priority 2014, dated 2017).
Where a name gives a salt, the structure may show the parent alone.

Experiments:
[1] = molecular target: T1, human phosphodiesterase 5 (PDE 5) (Homo sapiens, UniProt O76074); test: Inhibition of human phosphodiesterase 5 (PDE 5) (B-3); assay type: biochemical; conditions: PDE 5 preparation from human platelets; [8-3H] cGMP substrate, SPA; in some cases means of individual determinations
T1 construct: PDE 5 preparations are obtained from human platelets by disruption; from tissue; host or cells: human platelets (Mono Q ion exchange fractions with PDE 5 activity)
Summary of the method: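 Enzyme partially purified from human platelets by Mono Q ion exchange; [8-3H]cGMP substrate (0.025 μCi), Tris-HCl pH 7.5 with MgCl2/EDTA, <70% conversion, 60 min at room temperature. Compounds tested at 4 to 0.0018 μM final; yttrium SPA bead read-out, IC50 from concentration–% inhibition plot.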

[2] = molecular target: T2, recombinant guanylate cyclase reporter cell line (Rattus norvegicus, UniProt P19686+P20595); test: Effect on a recombinant guanylate cyclase reporter cell line (B-2); assay type: cell-based; conditions: MEC = minimum effective concentration, in some cases mean values for individual determinations
T2 construct: expressed in transfected cells
T2 sequence (P19686 1-690): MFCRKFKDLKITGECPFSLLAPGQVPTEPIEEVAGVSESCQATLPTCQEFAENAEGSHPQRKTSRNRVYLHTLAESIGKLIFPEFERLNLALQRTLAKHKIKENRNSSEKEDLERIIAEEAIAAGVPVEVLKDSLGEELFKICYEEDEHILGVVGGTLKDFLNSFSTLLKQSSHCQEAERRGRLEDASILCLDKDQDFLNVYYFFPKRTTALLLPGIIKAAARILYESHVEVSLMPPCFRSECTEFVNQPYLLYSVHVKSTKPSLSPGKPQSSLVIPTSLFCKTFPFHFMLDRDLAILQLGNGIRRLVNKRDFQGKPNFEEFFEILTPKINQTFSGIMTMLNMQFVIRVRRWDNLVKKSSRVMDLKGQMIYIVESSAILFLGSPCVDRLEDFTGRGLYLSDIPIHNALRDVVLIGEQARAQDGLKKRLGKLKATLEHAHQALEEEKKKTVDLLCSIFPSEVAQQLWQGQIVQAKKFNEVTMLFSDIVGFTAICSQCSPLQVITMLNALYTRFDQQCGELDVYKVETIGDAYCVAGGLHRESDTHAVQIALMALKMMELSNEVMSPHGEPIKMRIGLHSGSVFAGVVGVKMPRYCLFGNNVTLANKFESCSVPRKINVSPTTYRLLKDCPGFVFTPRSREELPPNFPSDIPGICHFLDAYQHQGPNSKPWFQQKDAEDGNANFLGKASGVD
T2 sequence (P20595 1-619): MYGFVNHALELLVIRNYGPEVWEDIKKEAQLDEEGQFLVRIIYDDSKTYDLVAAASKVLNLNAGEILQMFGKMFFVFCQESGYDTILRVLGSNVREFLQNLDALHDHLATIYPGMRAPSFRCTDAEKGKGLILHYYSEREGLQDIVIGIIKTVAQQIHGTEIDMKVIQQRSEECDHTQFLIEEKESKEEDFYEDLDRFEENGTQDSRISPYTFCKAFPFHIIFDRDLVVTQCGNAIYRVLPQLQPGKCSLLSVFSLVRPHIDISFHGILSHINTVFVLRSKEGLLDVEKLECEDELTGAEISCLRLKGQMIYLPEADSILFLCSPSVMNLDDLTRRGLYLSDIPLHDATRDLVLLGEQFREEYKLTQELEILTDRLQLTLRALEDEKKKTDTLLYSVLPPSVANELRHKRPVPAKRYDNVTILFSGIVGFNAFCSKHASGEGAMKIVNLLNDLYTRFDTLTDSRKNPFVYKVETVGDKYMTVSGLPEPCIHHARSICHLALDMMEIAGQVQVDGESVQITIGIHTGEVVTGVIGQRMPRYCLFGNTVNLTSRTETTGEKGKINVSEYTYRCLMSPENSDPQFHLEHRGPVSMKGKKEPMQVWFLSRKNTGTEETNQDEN
Summary of the method: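 Cellular guanylate cyclase activity measured in a recombinant reporter cell line expressing rat soluble guanylate cyclase subunits. Values are minimum effective concentrations (MEC), some as means of individual determinations.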

| Compound | IC50 [1] [nM] | MEC [2] [µM] |
| --- | --- | --- |
| Cc1nc2c(OCc3c(F)ccc(F)c3F)cccn2c1-c1nc2c(c(C(=O)O)n1)C(C)(C)C(=O)N2 [Example 54, 5,5-Dimethyl-2-{2-methyl-8-[(2,3,6-trifluorobenzyl)oxy]imidazo[1,2-a]pyridin-3-yl}-6-oxo-6,7-dihydro-5H-pyrrolo[2,3-d]pyrimidine-4-carboxylic acid] | 420 | 10 |
| Cc1nc2c(OCc3c(F)ccc(F)c3F)cccn2c1-c1nc2c(c(C(=O)N3CCN(C)CC3)n1)C(C)(C)C(=O)N2 [Example 60, 5,5-dimethyl-4-[(4-methylpiperazin-1-yl)carbonyl]-2-{2-methyl-8-[(2,3,6-trifluorobenzyl)oxy]imidazo[1,2-a]pyridin-3-yl}-5,7-dihydro-6H-pyrrolo[2,3-d]pyrimidin-6-one trifluoroacetate] | 420 | 3 |
| Cc1nc2c(OCc3c(F)cccc3F)cccn2c1-c1nc(CNS(C)(=O)=O)c2c(n1)NC(=O)C2(C)C [Example 65, N-[(2-{8-[(2,6-Difluorobenzyl)oxy]-2-methylimidazo[1,2-a]pyridin-3-yl}-5,5-dimethyl-6-oxo-6,7-dihydro-5H-pyrrolo[2,3-d]pyrimidin-4-yl)methyl]methanesulphonamide] | 68 | 3 |
| Cc1nc2c(OCc3c(F)cccc3F)cccn2c1-c1nc(CNC(=O)C2CC2)c2c(n1)NC(=O)C2(C)C [Example 66, N-[(2-{8-[(2,6-Difluorobenzyl)oxy]-2-methylimidazo[1,2-a]pyridin-3-yl}-5,5-dimethyl-6-oxo-6,7-dihydro-5H-pyrrolo[2,3-d]pyrimidin-4-yl)methyl]cyclopropanecarboxamide] | 48 | 3 |
| Cc1nc2c(OCc3c(F)cccc3F)cccn2c1-c1nnc2c(n1)NC(=O)C2(C)C [Example 68, 3-{8-[(2,6-Difluorobenzyl)oxy]-2-methylimidazo[1,2-a]pyridin-3-yl}-7,7-dimethyl-5,7-dihydro-6H-pyrrolo[2,3-e][1,2,4]triazin-6-one] | 260 | 1 |
| Cc1cc(OCc2c(F)cccc2F)c2nc(C)c(-c3nnc4c(n3)NC(=O)C4(C)C)n2c1 [Example 69, 3-{8-[(2,6-Difluorobenzyl)oxy]-2,6-dimethylimidazo[1,2-a]pyridin-3-yl}-7,7-dimethyl-5,7-dihydro-6H-pyrrolo[2,3-e][1,2,4]triazin-6-one] | 790 | 1 |
| Cc1nc2c(OCc3c(F)ccc(F)c3F)cccn2c1-c1ncc2c(n1)NC(=O)C2(C)C [Example 75, 5,5-Dimethyl-2-{2-methyl-8-[(2,3,6-trifluorobenzyl)oxy]imidazo[1,2-a]pyridin-3-yl}-5,7-dihydro-6H-pyrrolo[2,3-d]pyrimidin-6-one formate] | 370 | 10 |

Second part, the compound after the results:

| IC50 [1] [nM] | MEC [2] [µM] | Compound |
| --- | --- | --- |
| 4.3 | 0.3 | Cc1nc2c(OCc3c(F)ccc(F)c3F)cccn2c1-c1nc2c(c(C(N)=O)n1)C(C)(C)C(=O)N2 [Example 53, 5,5-Dimethyl-2-{2-methyl-8-[(2,3,6-trifluorobenzyl)oxy]imidazo[1,2-a]pyridin-3-yl}-6-oxo-6,7-dihydro-5H-pyrrolo[2,3-d]pyrimidine-4-carboxamide] |
| 4 | 0.3 | Cc1nc2c(OCc3c(F)cccc3F)cccn2c1-c1nc2c(c(C(=O)NC3CC3)n1)C(C)(C)C(=O)N2 [Example 55, N-Cyclopropyl-2-{8-[(2,6-difluorobenzyl)oxy]-2-methylimidazo[1,2-a]pyridin-3-yl}-5,5-dimethyl-6-oxo-6,7-dihydro-5H-pyrrolo[2,3-d]pyrimidine-4-carboxamide] |
| 1.3 | 0.3 | Cc1nc2c(OCc3c(F)cccc3F)cccn2c1-c1nc2c(c(C(=O)NCC(C)(C)O)n1)C(C)(C)C(=O)N2 [Example 56, 2-{8-[(2,6-difluorobenzyl)oxy]-2-methylimidazo[1,2-a]pyridin-3-yl}-N-(2-hydroxy-2-methylpropyl)-5,5-dimethyl-6-oxo-6,7-dihydro-5H-pyrrolo[2,3-d]pyrimidine-4-carboxamide] |
| 5.2 | 3 | Cc1nc2c(OCc3c(F)ccc(F)c3F)cccn2c1-c1nc2c(c(C(=O)NCC(C)(C)N)n1)C(C)(C)C(=O)N2 [Example 58, N-(2-amino-2-methylpropyl)-5,5-dimethyl-2-{2-methyl-8-[(2,3,6-trifluorobenzyl)oxy]imidazo[1,2-a]pyridin-3-yl}-6-oxo-6,7-dihydro-5H-pyrrolo[2,3-d]pyrimidin-4-carboxamide trifluoroacetate] |
| 1.7 | 0.3 | Cc1nc2c(OCc3c(F)ccc(F)c3F)cccn2c1-c1nc2c(c(C(=O)NCCC(F)(F)F)n1)C(C)(C)C(=O)N2 [Example 59, 5,5-dimethyl-2-{2-methyl-8-[(2,3,6-trifluorobenzyl)oxy]imidazo[1,2-a]pyridin-3-yl}-6-oxo-N-(3,3,3-trifluoropropyl)-6,7-dihydro-5H-pyrrolo[2,3-d]pyrimidine-4-carboxamide] |
| 28 | 10 | Cc1nc2c(OCc3c(F)ccc(F)c3F)cccn2c1-c1nc2c(c(C(=O)N3CCNCC3)n1)C(C)(C)C(=O)N2 [Example 64, 5,5-dimethyl-2-{2-methyl-8-[(2,3,6-trifluorobenzyl)oxy]imidazo[1,2-a]pyridin-3-yl}-4-(piperazin-1-ylcarbonyl)-5,7-dihydro-6H-pyrrolo[2,3-d]pyrimidin-6-one trifluoroacetate] |
| 47 | 0.03 | Cc1nc2c(OCc3c(F)cccc3F)cc(Cl)cn2c1-c1nc(N)c2c(n1)NC(=O)C2(C)C [Example 67, 4-Amino-2-{6-chloro-8-[(2,6-difluorobenzyl)oxy]-2-methylimidazo[1,2-a]pyridin-3-yl}-5,5-dimethyl-5,7-dihydro-6H-pyrrolo[2,3-d]pyrimidin-6-one] |
| 30 | 1 | Cc1nc2c(OCc3c(F)ccc(F)c3F)cccn2c1-c1nc2c(c(-c3cc[nH]n3)n1)C(C)(C)C(=O)N2 [Example 74, 5,5-Dimethyl-2-{2-methyl-8-[(2,3,6-trifluorobenzyl)oxy]imidazo[1,2-a]pyridin-3-yl}-4-(1H-pyrazol-5-yl)-5,7-dihydro-6H-pyrrolo[2,3-d]pyrimidin-6-one] |
